Results: ChEMBL document CHEMBL1141964, “Molecular docking and 3D-QSAR on 2-(oxalylamino) benzoic acid and its analogues as protein tyrosine phosphatase 1B inhibitors” (Bioorg Med Chem Lett, 2005)

Biological target: T1, Tyrosine-protein phosphatase non-receptor type 1 (Homo sapiens, UniProt P18031)
T1 sequence (P18031 whole entry): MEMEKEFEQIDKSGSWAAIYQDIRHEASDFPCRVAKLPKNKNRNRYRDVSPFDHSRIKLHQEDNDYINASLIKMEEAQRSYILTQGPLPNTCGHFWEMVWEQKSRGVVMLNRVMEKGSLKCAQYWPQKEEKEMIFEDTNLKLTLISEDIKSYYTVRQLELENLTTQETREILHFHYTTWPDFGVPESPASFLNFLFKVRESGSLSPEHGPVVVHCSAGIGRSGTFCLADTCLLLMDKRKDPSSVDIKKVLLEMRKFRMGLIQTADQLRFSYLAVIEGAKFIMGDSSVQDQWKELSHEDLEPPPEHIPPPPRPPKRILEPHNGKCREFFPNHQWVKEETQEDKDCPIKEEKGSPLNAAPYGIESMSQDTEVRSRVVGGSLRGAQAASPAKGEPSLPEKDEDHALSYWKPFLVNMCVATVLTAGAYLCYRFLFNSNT
Assay: Binding affinity to PTP1B

With `O=C(O)C(=O)Nc1sc2c(c1C(=O)O)CCC1(C2)OCCO1` the Ki was 2200 nM.
